Results: patent publication US6040330A, “Pharmaceutical formulations of taxanes” (BioNumerik Pharmaceuticals, Inc., priority 1999, dated 2000)
Values after ≈ are worked out from the molar mass of the structure shown.

How the values were obtained:
[1] = maximum solubility in NMP; format: physicochemical; settings: organic solvent or mixture; in NMP (N-methylpyrrolidin-2-one)
[2] = cited from earlier work

In the case of `CC(=O)O[C@@]12CO[C@@H]1C[C@H](O)[C@@]1(C)C(=O)[C@H](O)C3=C(C)[C@@H](OC(=O)[C@H](O)[C@@H](NC(=O)OC(C)(C)C)c4ccccc4)C[C@@](O)([C@@H](OC(=O)c4ccccc4)[C@H]21)C3(C)C` [Docetaxel], the solubility [1] is given as ~40 mg/mL (≈ 49.5 mM) and the “solubility in water (in words)” value [2] is given as “very poorly soluble in water”.
In the case of `CC(=O)O[C@H]1C(=O)[C@@]2(C)[C@H]([C@H](OC(=O)c3ccccc3)[C@]3(O)C[C@H](OC(=O)[C@H](O)[C@@H](NC(=O)c4ccccc4)c4ccccc4)C(C)=C1C3(C)C)[C@]1(OC(C)=O)CO[C@@H]1C[C@@H]2O` [Paclitaxel], the solubility [1] is given as ~40 mg/mL (≈ 46.8 mM), the “solubility in water (in words)” value [2] is given as “very poorly water soluble” and the water solubility ([2]; in water) is given as “less than 10 μg/mL”.
